Laboratory results reported in ChEMBL document CHEMBL1142715, “Discovery of new tetracyclic tetrahydrofuran derivatives as potential broad-spectrum psychotropic agents” (J Med Chem, 2005).

Assays:
[1] = biological target: Norepinephrine transporter (Rattus norvegicus, UniProt Q9WTR4); experiment: Inhibition of [3H]nisoxetine binding to rat Norepinephrine transporter
Rattus norvegicus [2] = experiment: In vivo effective dose to inhibit tryptamine-induced bilateral convulsions in rats; type: functional
Rattus norvegicus [3] = experiment: In vivo effective dose for reversal of tryptamine-induced backward locomotion in rats; type: functional
Mus musculus = experiment: In vivo effective dose for reversal of RO-4-1284 induced hypothermia in mouse; type: functional
Rattus norvegicus [4] = species on record: Rattus norvegicus; experiment: Effective dose for antagonistic activity against m-chlorophenyl-piperazine induced anxiety in rats; type: functional
Rattus norvegicus [5] = experiment: In vivo effective dose to inhibit apomorphine induced agitation in rats upon subcutaneous administration; type: functional; conditions: sc
Rattus norvegicus [6] = experiment: In vivo effective dose for reversal of tryptamine-induced cyanosis in rats; type: functional
[7] = biological target: T1, Alpha-2C adrenergic receptor (Homo sapiens, UniProt P18825); experiment: Inhibition of [3H]rauwolscine binding to Alpha-2C adrenergic receptor
T1 sequence (P18825 whole entry): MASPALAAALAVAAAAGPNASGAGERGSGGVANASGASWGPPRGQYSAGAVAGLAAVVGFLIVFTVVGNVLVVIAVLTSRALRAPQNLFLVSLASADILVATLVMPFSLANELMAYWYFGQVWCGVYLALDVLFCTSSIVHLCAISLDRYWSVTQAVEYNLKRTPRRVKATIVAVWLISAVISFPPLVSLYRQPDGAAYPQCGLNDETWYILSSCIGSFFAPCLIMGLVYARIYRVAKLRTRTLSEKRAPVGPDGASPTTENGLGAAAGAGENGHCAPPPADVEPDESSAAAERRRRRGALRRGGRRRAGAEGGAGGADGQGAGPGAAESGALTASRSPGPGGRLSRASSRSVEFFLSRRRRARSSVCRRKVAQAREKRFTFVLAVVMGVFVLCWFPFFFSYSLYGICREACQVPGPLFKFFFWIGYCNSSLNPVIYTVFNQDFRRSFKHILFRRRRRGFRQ

Histamine H1 receptor = Histamine H1 receptor (Homo sapiens, UniProt P35367)
Sequence of Histamine H1 receptor (P35367 whole entry): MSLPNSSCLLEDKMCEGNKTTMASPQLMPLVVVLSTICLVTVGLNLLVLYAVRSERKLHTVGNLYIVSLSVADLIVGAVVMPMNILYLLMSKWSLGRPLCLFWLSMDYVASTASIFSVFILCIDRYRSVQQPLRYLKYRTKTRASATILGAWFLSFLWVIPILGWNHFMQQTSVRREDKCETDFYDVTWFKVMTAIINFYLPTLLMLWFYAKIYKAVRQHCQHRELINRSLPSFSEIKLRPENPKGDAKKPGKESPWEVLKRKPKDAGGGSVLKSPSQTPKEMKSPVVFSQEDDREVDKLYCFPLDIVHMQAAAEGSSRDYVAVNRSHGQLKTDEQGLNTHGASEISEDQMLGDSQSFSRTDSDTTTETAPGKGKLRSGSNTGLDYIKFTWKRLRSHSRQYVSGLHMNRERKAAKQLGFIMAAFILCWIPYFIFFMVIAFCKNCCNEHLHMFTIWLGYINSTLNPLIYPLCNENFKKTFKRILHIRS
Description: Inhibition of [3H]pyrilamine binding to human Histamine H1 receptor

[8] = biological target: 5-hydroxytryptamine receptor 7 (Homo sapiens, UniProt P34969)
Sequence of 5-hydroxytryptamine receptor 7 (P34969 whole entry): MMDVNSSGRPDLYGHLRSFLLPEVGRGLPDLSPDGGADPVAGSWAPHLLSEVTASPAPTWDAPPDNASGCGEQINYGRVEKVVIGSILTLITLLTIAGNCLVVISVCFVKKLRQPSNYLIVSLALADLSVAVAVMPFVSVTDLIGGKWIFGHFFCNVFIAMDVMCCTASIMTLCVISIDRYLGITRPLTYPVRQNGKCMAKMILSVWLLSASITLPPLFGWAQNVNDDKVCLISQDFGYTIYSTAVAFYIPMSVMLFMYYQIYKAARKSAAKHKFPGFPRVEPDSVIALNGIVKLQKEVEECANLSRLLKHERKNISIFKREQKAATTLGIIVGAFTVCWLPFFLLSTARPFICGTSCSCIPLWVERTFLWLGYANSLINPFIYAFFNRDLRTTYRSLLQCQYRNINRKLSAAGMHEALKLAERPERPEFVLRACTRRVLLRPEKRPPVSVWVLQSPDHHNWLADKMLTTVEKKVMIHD
Description: Inhibition of [3H]5-HT binding to human 5-hydroxytryptamine 7 receptor

D(3) dopamine receptor = D(3) dopamine receptor (Homo sapiens, UniProt P35462)
Sequence of D(3) dopamine receptor (P35462 whole entry): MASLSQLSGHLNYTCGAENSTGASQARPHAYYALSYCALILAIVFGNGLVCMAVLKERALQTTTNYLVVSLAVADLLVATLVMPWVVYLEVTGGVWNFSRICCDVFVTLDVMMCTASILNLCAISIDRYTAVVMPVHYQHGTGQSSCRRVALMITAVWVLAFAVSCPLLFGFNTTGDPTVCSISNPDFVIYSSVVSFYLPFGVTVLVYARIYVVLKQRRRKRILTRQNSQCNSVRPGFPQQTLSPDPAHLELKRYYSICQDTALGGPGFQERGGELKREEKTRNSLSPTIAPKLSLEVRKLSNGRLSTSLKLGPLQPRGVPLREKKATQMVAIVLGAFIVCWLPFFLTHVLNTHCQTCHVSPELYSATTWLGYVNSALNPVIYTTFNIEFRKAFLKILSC
Description: Inhibition of [125I]iodosulpiride binding to human Dopamine receptor D3

[9] = biological target: T2, Alpha-2A adrenergic receptor (Homo sapiens, UniProt P08913)
T2 sequence (P08913 whole entry): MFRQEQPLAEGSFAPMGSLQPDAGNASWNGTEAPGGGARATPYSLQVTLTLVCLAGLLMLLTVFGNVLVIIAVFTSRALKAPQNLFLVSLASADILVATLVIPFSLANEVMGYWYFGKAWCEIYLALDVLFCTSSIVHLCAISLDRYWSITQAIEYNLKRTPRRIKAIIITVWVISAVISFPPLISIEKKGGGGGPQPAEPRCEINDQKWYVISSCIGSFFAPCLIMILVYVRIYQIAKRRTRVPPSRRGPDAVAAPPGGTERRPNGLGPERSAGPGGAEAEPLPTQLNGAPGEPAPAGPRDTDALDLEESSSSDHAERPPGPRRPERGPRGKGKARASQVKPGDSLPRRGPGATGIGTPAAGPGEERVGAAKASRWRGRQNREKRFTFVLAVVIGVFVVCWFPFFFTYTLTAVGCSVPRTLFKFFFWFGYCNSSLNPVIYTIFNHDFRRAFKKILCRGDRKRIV
Description: Inhibition of [3H]rauwolscine binding to Alpha-2A adrenergic receptor

[10] = biological target: T3, Adrenergic receptor alpha-1 (Rattus norvegicus, UniProt P15823+P23944+P43140)
T3 sequence (P15823 whole entry): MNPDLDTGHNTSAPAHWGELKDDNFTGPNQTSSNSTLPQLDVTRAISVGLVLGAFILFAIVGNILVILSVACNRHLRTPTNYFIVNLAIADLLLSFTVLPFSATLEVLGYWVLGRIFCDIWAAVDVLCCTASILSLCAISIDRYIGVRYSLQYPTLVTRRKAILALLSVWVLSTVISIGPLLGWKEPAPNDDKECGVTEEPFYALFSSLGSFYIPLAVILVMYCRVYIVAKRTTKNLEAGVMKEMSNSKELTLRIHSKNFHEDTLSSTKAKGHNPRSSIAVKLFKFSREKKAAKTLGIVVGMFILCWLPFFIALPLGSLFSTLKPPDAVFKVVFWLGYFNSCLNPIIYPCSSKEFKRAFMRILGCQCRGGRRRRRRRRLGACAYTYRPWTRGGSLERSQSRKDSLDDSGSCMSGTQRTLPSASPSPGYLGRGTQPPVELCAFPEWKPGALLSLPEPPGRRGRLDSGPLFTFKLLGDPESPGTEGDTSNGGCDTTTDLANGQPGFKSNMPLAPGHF
T3 sequence (P23944 whole entry): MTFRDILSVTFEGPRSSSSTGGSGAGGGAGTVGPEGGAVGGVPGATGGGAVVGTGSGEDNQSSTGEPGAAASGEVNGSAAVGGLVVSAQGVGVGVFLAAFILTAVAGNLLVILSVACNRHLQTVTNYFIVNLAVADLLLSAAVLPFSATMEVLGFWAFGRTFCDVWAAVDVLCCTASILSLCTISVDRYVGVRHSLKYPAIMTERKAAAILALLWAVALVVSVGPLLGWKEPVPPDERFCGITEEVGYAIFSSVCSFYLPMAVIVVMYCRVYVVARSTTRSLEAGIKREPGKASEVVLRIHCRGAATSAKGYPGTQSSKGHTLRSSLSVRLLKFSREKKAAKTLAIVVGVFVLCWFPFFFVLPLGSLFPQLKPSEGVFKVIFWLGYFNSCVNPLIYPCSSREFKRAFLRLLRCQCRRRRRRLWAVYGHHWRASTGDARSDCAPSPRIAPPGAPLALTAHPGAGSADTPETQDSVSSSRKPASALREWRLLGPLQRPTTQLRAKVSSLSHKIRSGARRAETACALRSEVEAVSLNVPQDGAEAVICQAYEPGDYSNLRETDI
T3 sequence (P43140 whole entry): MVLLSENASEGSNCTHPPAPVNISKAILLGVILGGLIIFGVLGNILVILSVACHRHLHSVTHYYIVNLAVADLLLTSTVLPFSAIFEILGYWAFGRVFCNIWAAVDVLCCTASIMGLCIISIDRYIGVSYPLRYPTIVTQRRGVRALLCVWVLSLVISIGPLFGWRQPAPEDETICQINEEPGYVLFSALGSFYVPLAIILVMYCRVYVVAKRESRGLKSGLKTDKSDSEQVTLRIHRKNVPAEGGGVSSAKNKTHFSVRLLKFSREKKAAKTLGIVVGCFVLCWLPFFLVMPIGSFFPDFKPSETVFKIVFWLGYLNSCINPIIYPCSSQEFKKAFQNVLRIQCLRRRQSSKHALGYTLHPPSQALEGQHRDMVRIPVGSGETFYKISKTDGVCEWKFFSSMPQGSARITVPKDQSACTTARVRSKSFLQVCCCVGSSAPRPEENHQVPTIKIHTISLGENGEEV
Description: Inhibition of [3H]prazosin binding to rat Alpha-1 adrenergic receptor

D(1A) dopamine receptor [11] = biological target: D(1A) dopamine receptor (Homo sapiens, UniProt P21728); experiment: Inhibition of [3H]SCH-23390 binding to human Dopamine receptor D1
Sequence of D(1A) dopamine receptor (Homo sapiens, UniProt P21728) (P21728 whole entry): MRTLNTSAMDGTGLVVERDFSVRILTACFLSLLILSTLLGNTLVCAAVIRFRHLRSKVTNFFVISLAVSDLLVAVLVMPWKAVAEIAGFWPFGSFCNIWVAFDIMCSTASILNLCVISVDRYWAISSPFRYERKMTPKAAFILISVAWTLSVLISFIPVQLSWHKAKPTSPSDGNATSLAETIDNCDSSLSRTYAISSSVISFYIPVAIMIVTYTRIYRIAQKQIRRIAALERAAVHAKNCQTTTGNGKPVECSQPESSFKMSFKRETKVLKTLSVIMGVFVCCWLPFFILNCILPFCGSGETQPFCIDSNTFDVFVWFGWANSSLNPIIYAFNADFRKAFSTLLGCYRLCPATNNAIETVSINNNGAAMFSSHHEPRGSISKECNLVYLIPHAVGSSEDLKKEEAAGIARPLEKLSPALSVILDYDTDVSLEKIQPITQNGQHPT

[12] = biological target: T4, 5-hydroxytryptamine receptor 2C (Homo sapiens, UniProt P28335)
T4 sequence (P28335 whole entry): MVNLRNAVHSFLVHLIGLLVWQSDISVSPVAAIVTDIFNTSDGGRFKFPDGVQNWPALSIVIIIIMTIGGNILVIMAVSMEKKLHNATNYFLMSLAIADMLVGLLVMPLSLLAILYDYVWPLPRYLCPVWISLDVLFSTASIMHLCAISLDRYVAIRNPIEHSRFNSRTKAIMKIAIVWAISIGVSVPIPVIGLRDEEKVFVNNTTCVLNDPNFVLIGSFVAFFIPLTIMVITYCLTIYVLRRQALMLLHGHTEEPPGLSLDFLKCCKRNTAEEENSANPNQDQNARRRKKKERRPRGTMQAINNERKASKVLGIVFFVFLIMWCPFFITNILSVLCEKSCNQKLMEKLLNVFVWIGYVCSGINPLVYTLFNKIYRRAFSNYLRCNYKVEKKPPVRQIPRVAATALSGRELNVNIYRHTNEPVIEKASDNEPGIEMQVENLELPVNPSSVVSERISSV
Description: Inhibition of [3H]mesulergine binding to human 5-hydroxytryptamine 2C receptor

[13] = biological target: 5-hydroxytryptamine receptor 2A (Homo sapiens, UniProt P28223)
Sequence of 5-hydroxytryptamine receptor 2A (P28223 whole entry): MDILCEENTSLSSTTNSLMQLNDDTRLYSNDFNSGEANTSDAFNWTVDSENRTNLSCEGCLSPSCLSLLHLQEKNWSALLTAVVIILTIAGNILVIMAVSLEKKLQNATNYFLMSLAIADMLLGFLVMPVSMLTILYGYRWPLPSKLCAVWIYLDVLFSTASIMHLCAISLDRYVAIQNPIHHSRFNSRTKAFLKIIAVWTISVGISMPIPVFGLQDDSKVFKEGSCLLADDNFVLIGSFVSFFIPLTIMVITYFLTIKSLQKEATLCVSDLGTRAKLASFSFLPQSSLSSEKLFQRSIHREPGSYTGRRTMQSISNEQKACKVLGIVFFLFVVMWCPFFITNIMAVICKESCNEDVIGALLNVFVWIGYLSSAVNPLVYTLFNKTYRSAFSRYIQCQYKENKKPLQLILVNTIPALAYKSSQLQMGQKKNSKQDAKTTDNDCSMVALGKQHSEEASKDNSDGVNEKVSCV
Description: Inhibition of [125I]R91150 binding to human 5-hydroxytryptamine 2A receptor

D(1A) dopamine receptor [14] = biological target: D(1A) dopamine receptor (Rattus norvegicus, UniProt P18901)
Sequence of D(1A) dopamine receptor (Rattus norvegicus, UniProt P18901) (P18901 whole entry): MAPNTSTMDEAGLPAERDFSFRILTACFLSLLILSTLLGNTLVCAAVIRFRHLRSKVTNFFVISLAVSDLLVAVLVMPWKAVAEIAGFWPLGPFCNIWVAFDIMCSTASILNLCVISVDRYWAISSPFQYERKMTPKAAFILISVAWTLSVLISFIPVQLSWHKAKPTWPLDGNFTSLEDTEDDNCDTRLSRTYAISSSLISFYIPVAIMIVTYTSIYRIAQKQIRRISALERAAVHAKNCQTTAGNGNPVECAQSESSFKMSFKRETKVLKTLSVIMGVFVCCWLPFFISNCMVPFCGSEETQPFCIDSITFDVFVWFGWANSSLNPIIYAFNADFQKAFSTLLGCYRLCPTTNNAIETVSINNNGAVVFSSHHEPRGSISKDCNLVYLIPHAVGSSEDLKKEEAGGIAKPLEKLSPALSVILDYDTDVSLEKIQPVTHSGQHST
Description: Inhibition of [3H]SCH-23390 binding to rat Dopamine receptor D1

Sequence of Norepinephrine transporter (Q9WTR4 whole entry): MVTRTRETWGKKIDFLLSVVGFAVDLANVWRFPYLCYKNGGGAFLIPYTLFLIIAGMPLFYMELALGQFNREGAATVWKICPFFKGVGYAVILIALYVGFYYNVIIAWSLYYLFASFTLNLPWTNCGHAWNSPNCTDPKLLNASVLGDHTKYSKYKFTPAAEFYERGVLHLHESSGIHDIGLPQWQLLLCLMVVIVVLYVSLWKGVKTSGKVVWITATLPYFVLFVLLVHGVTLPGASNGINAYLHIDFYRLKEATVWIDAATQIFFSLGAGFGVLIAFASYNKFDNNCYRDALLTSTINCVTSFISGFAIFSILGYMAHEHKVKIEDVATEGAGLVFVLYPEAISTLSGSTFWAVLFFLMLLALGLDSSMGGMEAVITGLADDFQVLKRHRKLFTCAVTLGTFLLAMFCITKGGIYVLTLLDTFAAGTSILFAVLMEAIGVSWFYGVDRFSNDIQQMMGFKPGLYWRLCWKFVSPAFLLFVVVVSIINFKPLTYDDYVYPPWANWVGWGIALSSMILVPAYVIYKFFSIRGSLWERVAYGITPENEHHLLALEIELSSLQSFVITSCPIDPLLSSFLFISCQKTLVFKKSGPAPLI

SMILES | Ki [1] [nM] | Ki [7] [nM] | Ki (Histamine H1 receptor) [nM] | Ki [8] [nM] | Ki (D(3) dopamine receptor) [nM] | Ki [9] [nM] | Ki [10] [nM] | Ki (D(1A) dopamine receptor [11]) [nM] | Ki [12] [nM] | Ki [13] [nM] | ED50 (Rattus norvegicus [2]) [mg/kg] | ED50 (Rattus norvegicus [3]) [mg/kg] | ED50 (Mus musculus) [mg/kg] | ED50 (Rattus norvegicus [4]) [mg/kg] | ED50 (Rattus norvegicus [5]) [mg/kg] | ED50 (Rattus norvegicus [6]) [mg/kg] | Ki (D(1A) dopamine receptor [14]) [nM]
Cc1nc2n(c(=O)c1CCN1CCC(c3noc4cc(F)ccc34)CC1)CCCC2 [RISPERIDONE] | > 5450 | – | – | – | – | – | – | – | – | – | 0.037 | > 10 | > 10 | > 0.31 | 0.17 | 0.002 | –
CN(C)C[C@H]1CC2c3ccccc3Sc3ccc(F)cc3[C@H]2O1 (stereo in doubt; (-)-8d) | 2 | 73 | 0.6 | 6.2 | 19 | 79 | 7.5 | 3 | 0.21 | – | 0.0079 | 0.32 | 0.025 | > 0.63 | 0.13 | 0.013 | –
CN(C)C[C@H]1CC2c3ccccc3Oc3ccc(Br)cc3[C@H]2O1 (stereo partly drawn) | 382 | 742 | 42 | 35 | 95 | 407 | 234 | 154 | 8.9 | – | – | – | – | – | – | – | –
CN1CCN(C2=Nc3cc(Cl)ccc3Nc3ccccc32)CC1 [CLOZAPINE] | – | – | – | – | – | – | – | – | – | – | 0.22 | – | > 80 | > 2.5 | 8.2 | 0.26 | –
CN(C)C[C@H]1CC2c3ccccc3Oc3ccc(F)cc3[C@H]2O1 (stereo partly drawn) | 3.6 | 200 | 7.5 | 80 | – | 269 | 71 | – | 4.3 | > 5450 | – | – | – | – | – | – | –
CN1CCN2c3ncccc3Cc3ccccc3C2C1 (stereo not drawn) [MIRTAZAPINE] | 1640 | 18 | – | – | – | – | 608 | – | 39 | – | 0.32 | 0.5 | > 40 | 0.1 | > 10 | 0.8 | 4170
CN(C)C[C@@H]1CC2c3ccccc3Oc3ccc(F)cc3[C@H]2O1 (stereo partly drawn) | 20 | 219 | 33 | 57 | – | 251 | 338 | – | 7.6 | > 5450 | – | – | – | – | – | – | –
CN(C)C[C@H]1CC2c3ccccc3Sc3ccc(F)cc3[C@H]2O1 (stereo in doubt; 8d) | 1.6 | 59 | 0.52 | 6.6 | 1.1 | 66 | 8.8 | 5.2 | < 0.42 | – | – | – | – | – | – | – | –
Cc1cc2c(s1)Nc1ccccc1N=C2N1CCN(C)CC1 [OLANZAPINE] | 958 | – | – | – | – | – | – | – | – | – | 0.086 | – | > 10 | 0.44 | 0.26 | 0.032 | –
CN1CCN2c3ccccc3Cc3ccccc3C2C1 (stereo not drawn) [MIANSERIN] | 101 | 3.8 | – | – | – | – | – | – | – | – | 0.24 | 0.55 | > 40 | 1.26 | > 10 | 0.18 | –

The next lines start with results.

Ki [1] [nM] | Ki [7] [nM] | Ki (Histamine H1 receptor) [nM] | Ki [8] [nM] | Ki (D(3) dopamine receptor) [nM] | Ki [9] [nM] | Ki [10] [nM] | Ki (D(1A) dopamine receptor [11]) [nM] | Ki [12] [nM] | Ki [13] [nM] | SMILES | ED50 (Rattus norvegicus [2]) [mg/kg] | ED50 (Rattus norvegicus [3]) [mg/kg] | ED50 (Mus musculus) [mg/kg] | ED50 (Rattus norvegicus [4]) [mg/kg] | ED50 (Rattus norvegicus [5]) [mg/kg] | ED50 (Rattus norvegicus [6]) [mg/kg] | Ki (D(1A) dopamine receptor [14]) [nM]
7.8 | 69 | 0.43 | 13 | 84 | 126 | 108 | – | – | – | CN(C)C[C@H]1C[C@@H]2c3ccccc3Cc3ccccc3[C@H]2O1 | 0.02 | 1.2 | 0.2 | 0.18 | 2 | 0.02 | –
2.7 | 78 | 1.2 | 34 | 8.6 | 72 | 32 | 19 | 0.65 | – | CN(C)C[C@@H]1CC2c3ccccc3Sc3ccc(F)cc3[C@H]2O1 (stereo partly drawn) | – | – | – | – | – | – | –
88 | 677 | 14 | 92 | 45 | 302 | 228 | 250 | 3.7 | – | CN(C)C[C@@H]1CC2c3ccccc3Oc3ccc(Cl)cc3[C@H]2O1 (stereo partly drawn) | – | – | – | – | – | – | –
> 5450 | – | – | – | – | – | – | – | 17 | – | CN(C)C[C@@H]1CC2c3ccccc3Oc3ccc(Br)cc3[C@H]2O1 (stereo partly drawn) | – | – | – | – | – | – | –
40 | 93 | 1.4 | 6.5 | 15 | 156 | 41 | 22 | 1.5 | – | CN(C)C[C@H]1C[C@@H]2c3ccccc3Sc3ccc(F)cc3[C@H]2O1 | 0.08 | > 2.5 | 2 | > 2.5 | 1.2 | 0.05 | –
9.4 | 26 | 4.3 | 251 | 251 | 10 | 35 | 83 | 2.4 | – | CN(C)C[C@H]1CC2c3ccccc3Oc3ccc(Cl)cc3[C@H]2O1 (stereo partly drawn) | – | – | – | – | – | – | –
